Experimental data: the supplement of paper PMC10307832

Key:
Assay in all cases: relative viability (nuclei count vs DMSO), 5 days (fraction); higher = more cells survive
Metformin + Olaparib = compound: CN(C)C(=N)NC(=N)N [Metformin] + O=C(c1cc(Cc2n[nH]c(=O)c3ccccc23)ccc1F)N1CCN(C(=O)C2CC2)CC1 [Olaparib] (partner 8 µM)
Outline: (§1)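 Lung cancer cell lines were pin-tool dosed in 1536-well plates on the day after seeding, with either a lone drug or a fixed anchor-drug dose plus five library-drug doses (not always all listed) in √10 steps. Nuclei were counted on 4× images after 5 days. Relative viability is the ratio of treated-well to vehicle-well nuclei counts, with each value a median of duplicate plates.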

Metformin + Alpelisib = compound: CN(C)C(=N)NC(=N)N [Metformin] + Cc1nc(NC(=O)N2CCC[C@H]2C(N)=O)sc1-c1ccnc(C(C)(C)C(F)(F)F)c1 [Alpelisib] (partner 2 µM)
Outline: as §1

Apatinib + Bortezomib = compound: N#CC1(c2ccc(NC(=O)c3cccnc3NCc3ccncc3)cc2)CCCC1 [Apatinib] + CC(C)C[C@H](NC(=O)[C@H](Cc1ccccc1)NC(=O)c1cnccn1)B(O)O [Bortezomib] (partner 0.002 µM)
Outline: as §1

Apatinib + Linsitinib = compound: N#CC1(c2ccc(NC(=O)c3cccnc3NCc3ccncc3)cc2)CCCC1 [Apatinib] + C[C@]1(O)C[C@@H](c2nc(-c3ccc4ccc(-c5ccccc5)nc4c3)c3c(N)nccn32)C1 [Linsitinib] (partner 1 µM)
Outline: as §1

Row | Cell Line | relative viability (Metformin + Olaparib; first compound 10 µM) | relative viability (Metformin + Olaparib; first compound 31.62 µM) | relative viability (Metformin + Olaparib; first compound 100 µM) | relative viability (Metformin + Olaparib; first compound 316.23 µM) | relative viability (Metformin + Olaparib; first compound 1000 µM) | relative viability (Metformin + Alpelisib; first compound 10 µM) | relative viability (Metformin + Alpelisib; first compound 31.62 µM) | relative viability (Metformin + Alpelisib; first compound 100 µM) | relative viability (Metformin + Alpelisib; first compound 316.23 µM) | relative viability (Metformin + Alpelisib; first compound 1000 µM) | relative viability (Apatinib + Bortezomib; first compound 0.08 µM) | relative viability (Apatinib + Bortezomib; first compound 0.253 µM) | relative viability (Apatinib + Bortezomib; first compound 0.8 µM) | relative viability (Apatinib + Bortezomib; first compound 2.53 µM) | relative viability (Apatinib + Bortezomib; first compound 8 µM) | relative viability (Apatinib + Linsitinib; first compound 0.08 µM) | relative viability (Apatinib + Linsitinib; first compound 0.253 µM) | relative viability (Apatinib + Linsitinib; first compound 0.8 µM) | relative viability (Apatinib + Linsitinib; first compound 2.53 µM) | relative viability (Apatinib + Linsitinib; first compound 8 µM)
1 | LCLC-103H | 0.727 | 0.713 | 0.76 | 0.737 | 0.777 | 1.05 | 1 | 1.14 | 1.03 | 1 | 1.16 | 1.03 | 0.998 | 0.992 | 1.09 | 1.1 | 1.05 | 1.06 | 1.09 | 0.993
2 | CAL-12T | 0.612 | 0.661 | 0.61 | 0.611 | 0.744 |  | 1.21 | 1.08 | 0.812 | 0.907 | 1.11 | 0.908 | 1.06 | 0.819 | 1.09 | 0.875 | 0.879 | 0.819 | 0.762 | 0.654
3 | PC-14 | 0.233 | 0.247 | 0.259 | 0.225 | 0.222 | 0.829 | 0.886 | 0.873 | 0.975 | 0.893 | 0.984 | 1.01 | 0.79 | 0.776 | 0.834 | 0.988 | 1.03 | 0.86 | 0.95 | 1.02
4 | NCI-H2009 | 0.612 | 0.69 | 0.604 | 0.568 | 0.705 | 1.25 | 1.16 | 1.13 | 1.17 | 1.1 | 1.09 | 0.955 | 0.954 | 0.714 | 0.574 | 1.26 | 1.16 | 1.17 | 1.08 | 0.799
5 | NCI-H2347 | 0.585 | 0.506 | 0.376 | 0.465 | 0.512 | 0.771 | 0.968 | 1.09 | 0.961 | 1.01 | 0.847 | 1.06 | 1.13 |  | 0.891 | 1 | 0.888 | 1.01 | 0.932 | 0.9
6 | NCI-H23 | 0.252 | 0.299 | 0.279 | 0.26 | 0.293 | 0.825 | 0.941 | 0.696 | 0.715 | 0.901 | 0.91 | 1.01 | 0.908 | 0.902 | 0.805 | 0.694 | 0.652 | 0.501 | 0.568 | 0.542
